Measured values published in US5349127A, “Expression of herbicide metabolizing cytochromes P450” (priority 1992, dated 1994).
One block for each compound: values may come before it.

How the values were obtained:
[1] = tested on: leaves of transformed tobacco; test: Metabolism of 10015 to 10014 in excised tobacco leaves (Example 20); assay type: in vitro ADME, Nicotiana tabacum
Procedure: Plants were grown from tobacco seed produced by self-pollinated transformed plants in Metro-Mix® 350 under 16 hour light (light intensity of 400 μEinsteins per second per square meter at pot level, 22° C. and 80% relative humidity) followed by 8 hours of dark (18° C. and 70 to 80% relative humidity) and watered three times daily with half strength Hoagland's solution. The presence of the cytochrome P450 protein in individual plants was confirmed by Western blot analysis before testing for sulfonylurea metabolism.
During growth, the tobacco plants produced leaves attached to the main stalk, none of which were of the same age or size. Removal of leaves attached to the main stalk of each plant forced the growth of lateral shoots which in turn produced the many leaves of similar size and age needed for the experiments. The leaves were excised under water with a scalpel. These leaves were transferred to cups with the uptake solution (20 ppm sulfonylurea in 1 mM potassium phosphate buffer, pH 7.0) and allowed to take up the solution through the cut leaf base for 2 hours in the light (200 μEinsteins per second per sq. meter) at 22° C. and 86% relative humidity. At the end of the uptake period, sample leaves were either frozen in liquid nitrogen and stored at -20° C. (designated '0 hour post-uptake samples') or transferred to cups with phosphate buffer alone for an additional 5 hours of incubation in the light before freezing (designated 5 hour post-uptake samples'). In the 10001 experiments some leaves were incubated for 21 hours post-uptake under continuous light (200 μEinsteins per second per square meter, 22° C., and 63% relative humidity).
Individual leaves were extracted with 30 ml acetone/water (80%/20% by volume) for 1 minute in a Sorvall® Omni-Mixer. The brei was centrifuged to remove the tissue debris. Acetone in the supernatant was removed under a stream of nitrogen. The resulting aqueous extract was acidified to pH 2 to 3 with sulfuric acid and then extracted three times with methylene chloride. The combined methylene chloride extracts were reduced to dryness by rotary evaporation at 30° to 40° C. The dry residue was dissolved in acetone for transfer to a vial. Once transferred the acetone was removed by evaporation under a stream of nitrogen. Before HPLC analysis the dry sample was redissolved in 1.0 ml of acetonitrile/water (25%/75%). HPLC separations were carried out on a Zorbax® ODS column (4.6 mm×250 man) at 45° C. with a flow rate of 1.4 ml per minute. […] 10015 and its metabolites were detected at 254 nm while ^14 C-10001 and its metabolites were detected with a Radiomatic Flo-One® detector. A diode array detector was used in separate experiments to obtain the absorbance spectra of the 10015 metabolite and an 10014 standard in the HPLC analysis of several extracts (HPLC method is described in Romesser et al., Biochem. Biophys. Res. Comm., 140:650-659 (1986)). Comparison of the metabolite absorbance spectrum with that of the 10014 confirmed the metabolite's identity.

[2] = tested on: S. lividans pCAO200; test: Sulfonylurea metabolism by washed cell suspension (Examples 6-9); assay type: in vitro ADME, Streptomyces lividans; details: substrate 10010
[3] = tested on: S. lividans pCAO200SU1-FeS-B#9; test: as above; assay type: in vitro ADME, Streptomyces lividans; details: substrate 10010
Procedure: (§1) Herbicides and their metabolites are measured by HPLC as described by Romesser et al., BBRC 140: 650-659 (1986), herein incorporated by reference, except that 0.1% H3 PO4 is used in both solvents. Chromatographic identity and quantitation of the herbicides and their resulting metabolites is determined by comparing them chromatographically with authentic standard compounds. Identity of the resulting metabolites is also confirmed by UV spectroscopy.
A 100 ml culture of S. griseolus ATCC 11796 in sporulation broth and a 50 ml culture of S. lividans transformed with pCAO400 in YEME broth were prepared and incubated for 24 hours as described. At that time, the S. griseolus culture was split into two 50 ml aliquots into two separate flasks and 25 ml of fresh sporulation broth was added to each and 9 mg of […] was added to one of these cultures to induce cytochrome P450SU1 expression. Fresh YEME broth (25 ml) was added to the S. lividans culture. After an additional 6 hours growth at 30° C., the cells in each culture were harvested as described above, washed twice with MOPS (50 mM, pH 7.2) and recentrifuged. The cell pellets were resuspended in four cell volumes of MOPS (50 mM, pH 7.2) containing 0.2% glucose and about 100 μg/ml of 10004. These cell suspensions were incubated at 30° C. with shaking and aliqouts were taken at 2 and 5.5 hours. The supernatant of each aliquot was analyzed by HPLC and the concentrations of the sulfonylurea compound 10004 and its metabolite 10005 were determined.
S. lividans transformed respectively with pCAO200SU1-FeS-B#9, pCAO200SU#112and pCAO200 were cultured for 36 hours in 400 ml of YEME broth at 30° C. S. griseolus ATCC 11796 was similarly cultured in 400 ml of sporulation broth. Six hours before harvesting the cells, 150 ml of fresh YEME broth was added to the S. lividans cells, and the S. griseolus cells were split into two 200 ml cultures with 100 ml of fresh sporulation broth added to each. 10001 (36 mg) was added to one of the two S. griseolus cultures to induce cytochrome P450SU1. […]

[4] = tested on: S. lividans pCAO200SU1#12; test: as above; assay type: in vitro ADME, Streptomyces lividans; details: substrate 10010
Procedure: as §1, with “spectroscopy. […]” for “spectroscopy.”
S. lividans transformed respectively with pCAO200SU1-FeS-B#9, pCAO200SU#112and pCAO200 were cultured for 36 hours in 400 ml of YEME broth at 30° C. S. griseolus ATCC 11796 was similarly cultured in 400 ml of sporulation broth. Six hours before harvesting the cells, 150 ml of fresh YEME broth was added to the S. lividans cells, and the S. griseolus cells were split into two 200 ml cultures with 100 ml of fresh sporulation broth added to each. 10001 (36 mg) was added to one of the two S. griseolus cultures to induce cytochrome P450SU1. The cells were prepared as described above in Example 5 and the concentrations of the sulfonylurea compound 10006 and its metabolites 10007, 10008 or 10009 were determined.

10014 levels ([1]; AGS112 (control, no P450SU1), 0 hour post-uptake): 0 μg/leaf
10014 levels ([1]; AGS112 (control, no P450SU1), 5 hour post-uptake): 0 μg/leaf
10014 levels ([1]; Cab-SU131.5 (chloroplast directed), 0 hour post-uptake): 1.3 μg/leaf
10014 levels ([1]; Cab-SU131.5 (chloroplast directed), 5 hour post-uptake): 2.9 μg/leaf
10014 levels ([1]; SSU-SU111.5 (chloroplast directed), 0 hour post-uptake): 2.1 μg/leaf
10014 levels ([1]; SSU-SU111.5 (chloroplast directed), 5 hour post-uptake): 1.8 μg/leaf
10014 levels ([1]; SSU-SU121.3 (chloroplast directed), 0 hour post-uptake): 1.2 μg/leaf
10014 levels ([1]; SSU-SU121.3 (chloroplast directed), 5 hour post-uptake): 1.7 μg/leaf
10014 levels ([1]; SU18.15 (cytoplasm directed), 0 hour post-uptake): 0 μg/leaf
10014 levels ([1]; SU18.15 (cytoplasm directed), 5 hour post-uptake): 0 μg/leaf
10014 levels ([1]; SU18.8 (cytoplasm directed), 0 hour post-uptake): 0 μg/leaf
10014 levels ([1]; SU18.8 (cytoplasm directed), 5 hour post-uptake): 0 μg/leaf
10014 levels ([1]; W38, 20 ppm 10015 uptake 2 h, 0 hour post-uptake): 0 μg/leaf
10014 levels ([1]; W38, 20 ppm 10015 uptake 2 h, 5 hour post-uptake): 0 μg/leaf
Structure (SMILES): COc1cc(OC)nc(NC(=O)NS(=O)(=O)c2cccc3c2S(=O)(=O)NC3)n1 [compound 10014, 2,3-dihydro-N-[(4,6-dimethoxypyrimidin-yl)aminocarbonyl]-1,2-benzisothiazol-7-sulfonamide-1,1-dioxide]

Structure (SMILES): COC(=O)c1ccccc1S(=O)(=O)NC(=O)Nc1nc(C)cc(C(=O)O)n1 [compound 10012, N-[(4-carboxy-6-methylpyrimidin-2yl)aminocarbonyl]-2-methoxycarbonylbenzenesulfonamide]
concentration in supernatant ([2]; 2 h): 0 µM
concentration in supernatant ([2]; 4 h): 0 µM
concentration in supernatant ([2]; 6 h): 0 µM
concentration in supernatant ([3]; 2 h): 2 µM
concentration in supernatant ([3]; 4 h): 12 µM
concentration in supernatant ([3]; 6 h): 20 µM
concentration in supernatant ([4]; 2 h): 0 µM
concentration in supernatant ([4]; 4 h): 0 µM
concentration in supernatant ([4]; 6 h): 0 µM
